Test results reported in patent US20020115699A1, “Method for treating renal disease” (SmithKline Beecham p.l.c., priority 1994, published 2002).
“And” between values parts separate entries of the source, which are not always exact repeats. Equal entries are not always repeated.

How the values were obtained:
[1] = tested on: Zucker fatty (fa/fa) rats; test: Urinary total protein (Bio-Rad dye-binding assay, 24 h urine) in 9 month Zucker rat study; assay type: in vivo; settings: Zucker fatty rats; for URINARY PROTEIN CONCENTRATION: 50 μmol/kg of diet started once renal complications established (after 4 months), mean ± SEM
Protocol: A second study was performed in Zucker rats over a period of 9 months to investigate the longitudinal effects of the drug on systolic blood pressure and various indices of renal function, two of which are exemplified here. […] A third group of Zucker fatty rats and a further group of lean rats were given diet alone throughout the period of study. After dosing with the test compound, at monthly intervals measurements were made of systolic blood pressure, urinary total protein and urinary N-acetyl β-D-glucosaminidase (NAG) activity. Twenty-four hour urine collections, made in metabolism cages, were aliquoted and frozen at −70° C. until required for assay. Urinary protein concentration was measured using the Bio-Rad protein assay as modified for use in a 96-well microtitre plate. The assay is a dye-binding assay based on the differential colour change of a dye in response to various concentrations of protein (Bradford, Anal. Biochem., 72, 248, 1976). After a period of incubation with Dye Reagent, diluted urine samples are read at an optical density of 595 nm using a Molecular Devices multiplate reader.

obese Zucker fa/fa rats = test: Renal histopathology after 3 months dietary administration in obese Zucker fa/fa rats; assay type: in vivo, rat; design: key to Hydronephrosis (histopathological severity, kidney) / Chronic Nephropathy (histopathological severity, kidney): 0: None seen; ±: Minimal; +: Mild; + +: Moderate; + + +: Marked
Protocol: Obese Zucker rats are known to develop chronic nephropathy in addition to hyperlipidaemia, hyperinsulinaemia and peripheral insulin resistance (Kasiske et al 1985).
5-[4- [2-(N-methyl-N-(2-pyridyl)amino)ethoxy]benzyl]thiazolidine-2,4-dione (herein after referred to as ‘test compound’) was administered to 2-3 month old obese Zucker fa/fa rats by dietary administration to provide a daily dose over a period of 3 months ranging from 2.0-7.0 μmole/kg body weight. A group of age-matched obese Zucker fa/fa rats were given the same diet without the addition of the test compound, as was a group of lean Fa/? rats. At the end of the study, all of the control Zucker fa/fa rats had chronic nephropathy which involved dilated tubules, atrophied or hyperplastic tubular epithelial cells, thickened tubular basement membranes, segmented glomeruli or global glomerulosclerosis.
In the corresponding lean animals, 3/15 animals, a minimal degree of chronic nephropathy was seen.
Characteristically this involved dilation of the kidney pelvis.

[2] = tested on: Zucker fatty (fa/fa) rats; test: Urinary N-acetyl β-D-glucosaminidase (NAG) activity in 9 month Zucker rat study; assay type: in vivo; settings: for URINARY N-ACETYL-β-D-GLUCOSAMINIDASE ACTIVITY: mean ± SEM
Protocol: A second study was performed in Zucker rats over a period of 9 months to investigate the longitudinal effects of the drug on systolic blood pressure and various indices of renal function, two of which are exemplified here. In one arm of the study, the drug was given in the diet (50 μmole/kg of diet) from aged 6-7 weeks in Zucker fatty (fa/fa) rats, whilst in a second arm of the study, drug treatment as above was delayed until proteinuria had become established after 4 months, indicative of structural damage already present in the kidneys. A third group of Zucker fatty rats and a further group of lean rats were given diet alone throughout the period of study.
After dosing with the test compound, at monthly intervals measurements were made of systolic blood pressure, urinary total protein and urinary N-acetyl β-D-glucosaminidase (NAG) activity.
Twenty-four hour urine collections, made in metabolism cages, were aliquoted and frozen at −70° C. until required for assay.
NAG activity was assayed using a reagent kit on a Hitachi 717 analyser (both suppied by Boehringer Mannheim UK, Lewes). Enzyme activity was measured by monitoring the rate of chlorophenol (570 nm) released from the substrate chlorophenol red-β-D-glucosaminide.
In the tables below, results are given as mean values for the group ±the standard error of the mean. Results have been analysed by one way ANOVA and significant differences from the Zucker fatty rat control group have been indicated by an asterisk.

[3] = individual obese Zucker fa/fa rats, test compound in diet 2.0-7.0 μmole/kg body weight daily, 3 months

CN(CCOc1ccc(CC2SC(=O)NC2=O)cc1)c1ccccn1 (centres unmarked) [Test Compound, 5-[4-[2-(N-methyl-N-(2-pyridyl)amino)ethoxy]benzyl]thiazolidine-2,4-dione]
URINARY PROTEIN CONCENTRATION ([1]; treatment duration 2 months): 5330 ± 967 µg/h | URINARY PROTEIN CONCENTRATION ([1]; treatment duration 3 months): 6230 ± 835 µg/h | URINARY PROTEIN CONCENTRATION ([1]; treatment duration 4 months): 5380 ± 708 µg/h | URINARY PROTEIN CONCENTRATION ([1]; treatment duration 5 months): 7680 ± 825 µg/h | URINARY PROTEIN CONCENTRATION ([1]; treatment duration −1 month (before start of drug)): 958 ± 194 µg/h | URINARY PROTEIN CONCENTRATION ([1]; treatment duration −2 months (before start of drug)): 457 ± 21 µg/h | URINARY PROTEIN CONCENTRATION ([1]; treatment duration −3 months (before start of drug)): 347 ± 32 µg/h | URINARY PROTEIN CONCENTRATION ([1]; treatment duration −4 months (before start of drug)): 220 ± 13 µg/h | rate of increase in the urinary protein concentration ([1]; drug treatment commenced after proteinuria had become established): marked reduction | Chronic Nephropathy (histopathological severity, kidney) (obese Zucker fa/fa rats; [3]): + and ± (8×) and 0 and + + | Hydronephrosis (histopathological severity, kidney) (obese Zucker fa/fa rats; [3]): 0 | incidence and degree of chronic nephropathy (obese Zucker fa/fa rats; obese Zucker fa/fa rats, 3 months in diet, compared to control Zucker fa/fa rats): reduction in the incidence and degree of chronic nephropathy | hydronephrosis (obese Zucker fa/fa rats; obese Zucker fa/fa rats, 3 months in diet, control 4/9 mild-moderate): No hydronephrosis was seen | elevation of urinary NAG activity ([2]; Zucker fatty (fa/fa) rats treated from age 6-7 weeks for 9 months via the diet): markedly reduced | URINARY N-ACETYL-β-D-GLUCOSAMINIDASE ACTIVITY ([2]; Zucker fatty rats, 50 μmol/kg of diet from age 6-7 weeks (prior to renal complications), treatment duration 0 months): 5.7 ± 0.4 mU/hour | URINARY N-ACETYL-β-D-GLUCOSAMINIDASE ACTIVITY ([2]; Zucker fatty rats, 50 μmol/kg of diet from age 6-7 weeks (prior to renal complications), treatment duration 1 month): 7.5 ± 0.7 mU/hour | URINARY N-ACETYL-β-D-GLUCOSAMINIDASE ACTIVITY ([2]; Zucker fatty rats, 50 μmol/kg of diet from age 6-7 weeks (prior to renal complications), treatment duration 2 months): 3.8 ± 1.1 mU/hour | URINARY N-ACETYL-β-D-GLUCOSAMINIDASE ACTIVITY ([2]; Zucker fatty rats, 50 μmol/kg of diet from age 6-7 weeks (prior to renal complications), treatment duration 3 months): 4.5 ± 0.9 mU/hour | URINARY N-ACETYL-β-D-GLUCOSAMINIDASE ACTIVITY ([2]; Zucker fatty rats, 50 μmol/kg of diet from age 6-7 weeks (prior to renal complications), treatment duration 4 months): 5.1 ± 1.2 mU/hour | URINARY N-ACETYL-β-D-GLUCOSAMINIDASE ACTIVITY ([2]; Zucker fatty rats, 50 μmol/kg of diet from age 6-7 weeks (prior to renal complications), treatment duration 5 months): 6.5 ± 0.7 mU/hour | URINARY N-ACETYL-β-D-GLUCOSAMINIDASE ACTIVITY ([2]; Zucker fatty rats, 50 μmol/kg of diet from age 6-7 weeks (prior to renal complications), treatment duration 6 months): 6.5 ± 1.1 mU/hour | URINARY N-ACETYL-β-D-GLUCOSAMINIDASE ACTIVITY ([2]; Zucker fatty rats, 50 μmol/kg of diet from age 6-7 weeks (prior to renal complications), treatment duration 7 months): 8.9 ± 0.8 mU/hour | URINARY N-ACETYL-β-D-GLUCOSAMINIDASE ACTIVITY ([2]; Zucker fatty rats, 50 μmol/kg of diet from age 6-7 weeks (prior to renal complications), treatment duration 8 months): 6.2 ± 1.2 mU/hour | URINARY N-ACETYL-β-D-GLUCOSAMINIDASE ACTIVITY ([2]; Zucker fatty rats, 50 μmol/kg of diet from age 6-7 weeks (prior to renal complications), treatment duration 9 months): 9.1 ± 1.2 mU/hour | URINARY N-ACETYL-β-D-GLUCOSAMINIDASE ACTIVITY ([2]; Zucker fatty rats, 50 μmol/kg of diet started once renal complications established (after 4 months), treatment duration 0 months): 7.6 ± 0.7 mU/hour | URINARY N-ACETYL-β-D-GLUCOSAMINIDASE ACTIVITY ([2]; Zucker fatty rats, 50 μmol/kg of diet started once renal complications established (after 4 months), treatment duration 1 month): 7.6 ± 0.7 mU/hour | URINARY N-ACETYL-β-D-GLUCOSAMINIDASE ACTIVITY ([2]; Zucker fatty rats, 50 μmol/kg of diet started once renal complications established (after 4 months), treatment duration 2 months): 5.7 ± 0.9 mU/hour | URINARY N-ACETYL-β-D-GLUCOSAMINIDASE ACTIVITY ([2]; Zucker fatty rats, 50 μmol/kg of diet started once renal complications established (after 4 months), treatment duration 3 months): 7.4 ± 0.9 mU/hour | URINARY N-ACETYL-β-D-GLUCOSAMINIDASE ACTIVITY ([2]; Zucker fatty rats, 50 μmol/kg of diet started once renal complications established (after 4 months), treatment duration 4 months): 5.4 ± 1.0 mU/hour | URINARY N-ACETYL-β-D-GLUCOSAMINIDASE ACTIVITY ([2]; Zucker fatty rats, 50 μmol/kg of diet started once renal complications established (after 4 months), treatment duration 5 months): 8.0 ± 1.1 mU/hour | URINARY N-ACETYL-β-D-GLUCOSAMINIDASE ACTIVITY ([2]; Zucker fatty rats, 50 μmol/kg of diet started once renal complications established (after 4 months), treatment duration −1 month (before start of drug)): 7.8 ± 0.6 mU/hour | URINARY N-ACETYL-β-D-GLUCOSAMINIDASE ACTIVITY ([2]; Zucker fatty rats, 50 μmol/kg of diet started once renal complications established (after 4 months), treatment duration −2 months (before start of drug)): 9.5 ± 1.1 mU/hour | URINARY N-ACETYL-β-D-GLUCOSAMINIDASE ACTIVITY ([2]; Zucker fatty rats, 50 μmol/kg of diet started once renal complications established (after 4 months), treatment duration −3 months (before start of drug)): 8.3 ± 0.5 mU/hour | URINARY N-ACETYL-β-D-GLUCOSAMINIDASE ACTIVITY ([2]; Zucker fatty rats, 50 μmol/kg of diet started once renal complications established (after 4 months), treatment duration −4 months (before start of drug)): 5.4 ± 0.2 mU/hour | urinary NAG activity ([2]; Zucker fatty rats, drug treatment commenced after proteinuria had become established): prevented from rising further
